Data on 13 molecules can be found in ChEMBL document CHEMBL1201862, “PubChem BioAssay data set” (2004).

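Five concentrations, 48 hours, 96-well plates. GI50 marks 50% less growth.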 Active and inactive are the calls of the source. No stated cut-off is given here; in the data, active = GI50 up to about 1.1 µM and inactive = higher.

Some test systems named below: CAKI-1; HCC 2998; HCT-116; HL-60; M14; M19-MEL; Malme-3M; NCI-H226; NCI-H522; SF-268; SK-MEL-28; SK-MEL-2; SK-MEL-5; SK-OV-3; U-251; SNB-75; NCI/ADR-RES; PC-3; T47D.
Common to all, as to assay: NCI anticancer screen, dose series, 48 h

Turning to `Cc1c(Cl)ccc2c1NC(=O)C2(O)C1Cc2ccccc2C1=O` (centres undefined), the GI50 in the test with CAKI-1 is > 100 µM (inactive); in the test with HCC 2998, 32.7 µM (inactive); in the test with HCT-116, 62.7 µM (inactive); with HL-60, 21.2 µM (inactive); with M14, > 100 µM (inactive); in the test on M19-MEL, > 100 µM (inactive). The GI50 with Malme-3M, with NCI-H226, in the test on NCI-H522, in the test with SF-268, in the test on SK-MEL-28 and in the test with SK-MEL-2 was > 100 µM (inactive) in each case. Moreover, the GI50 in the test on SK-MEL-5 is > 100 µM (inactive); in the test with SK-OV-3, > 100 µM (inactive); with U-251, 27.7 µM (inactive).

Consider `COc1ccc2c3c(n(Cc4ccccc4)c(=O)c2c1)-c1cc(OC)c(OC)cc1C3C` (centres undefined), for which the GI50 was 28.1 µM (inactive) in the test with CAKI-1; 36.6 µM (inactive) in the test on HCC 2998; 14.7 µM (inactive) with HCT-116; > 46.8 µM (inactive) with HL-60; 44 µM (inactive) in the test on M14; 31.4 µM (inactive) with M19-MEL. In addition, the GI50 in the test with Malme-3M was 15.6 µM (inactive); with NCI-H226, 17.9 µM (inactive); in the test on NCI-H522 it was 9.08 µM (inactive); in the test on SF-268, 9.91 µM (inactive); with SK-MEL-28, 43.5 µM (inactive); with SK-MEL-2 it was 17 µM (inactive). Besides, the GI50 in the test with SK-MEL-5 was 12.2 µM (inactive); in the test with SK-OV-3, 18.8 µM (inactive); in the test with SNB-75, 13.6 µM (inactive); in the test on U-251, 5.69 µM (inactive).

Turning to `[N-]=[N+]=NC1CC(n2cc(COCC(F)(F)F)c(=O)[nH]c2=O)OC1CO` (centres undefined), the GI50 in the test with CAKI-1, with HCC 2998, in the test with HL-60, in the test on M14, with M19-MEL and with Malme-3M was > 100 µM (inactive) in each case. For the same molecule, the GI50 with NCI-H522, in the test with SF-268, in the test with SK-MEL-28, in the test with SK-MEL-2, in the test with SK-MEL-5 and in the test on SK-OV-3 was > 100 µM (inactive) throughout. Further, the GI50 with SNB-75 and with U-251 was > 100 µM (inactive) in each case.

For `[N-]=[N+]=NC(c1cn(C2CC(O)C(CO)O2)c(=O)[nH]c1=O)C(Cl)Br` (centres undefined), the GI50 in the test with CAKI-1, with HCC 2998, in the test with HCT-116, in the test with HL-60, with M19-MEL and in the test on Malme-3M was > 100 µM (inactive) in each case. The GI50 with NCI-H226, with NCI-H522, in the test with SK-MEL-28, with SK-MEL-2, in the test on SK-MEL-5 and with SNB-75 was > 100 µM (inactive) in each case. Further, the GI50 in the test with U-251 was > 100 µM (inactive).

As to `COC(=O)C(=O)C(CC(=O)Nc1ccc(C)cc1)C(=O)OC` (centres undefined), the GI50 with CAKI-1, in the test with HCC 2998, in the test with HCT-116, in the test with HL-60, in the test on M14 and in the test with M19-MEL was > 100 µM (inactive) each time. In addition, the GI50 with Malme-3M, in the test with NCI-H226, with NCI-H522, with SF-268, in the test with SK-MEL-28 and in the test with SK-MEL-2 was > 100 µM (inactive) in each case. The GI50 in the test on SK-MEL-5, in the test on SK-OV-3 and in the test with U-251 was > 100 µM (inactive) each time.

Regarding `Clc1ccc(C2=NOC3C4CCC(C4)C23)cc1` (centres undefined), the GI50 was > 100 µM (inactive) in the test on CAKI-1; > 100 µM (inactive) in the test with HCC 2998; > 100 µM (inactive) in the test on HCT-116; 56 µM (inactive) in the test on HL-60; > 100 µM (inactive) in the test with M14; > 100 µM (inactive) in the test on M19-MEL. For the same molecule, the GI50 in the test with Malme-3M was > 100 µM (inactive); with NCI-H226 it was > 100 µM (inactive); in the test with NCI-H522, 59.8 µM (inactive); in the test on SF-268, > 100 µM (inactive); in the test on SK-MEL-28, > 100 µM (inactive); with SK-MEL-2, > 100 µM (inactive). For the same molecule, the GI50 in the test with SK-MEL-5, in the test on SK-OV-3, with SNB-75 and with U-251 was > 100 µM (inactive) throughout.

As for `COc1ccc(/C=C2/C[N+](C)(C)C/C(=C/c3ccc(OC)cc3)C2=O)cc1`, the GI50 is > 100 µM (inactive) in the test with CAKI-1; 15.3 µM (inactive) in the test on HCC 2998; 32.5 µM (inactive) with HCT-116; 14.7 µM (inactive) in the test on HL-60; 70.5 µM (inactive) in the test with M14; 23.6 µM (inactive) with M19-MEL. Further, the GI50 in the test with Malme-3M is 22.5 µM (inactive); in the test with NCI-H226, 20.9 µM (inactive); in the test on NCI-H522 it was 17.9 µM (inactive); in the test on SF-268, 26.9 µM (inactive); in the test with SK-MEL-28, 12.9 µM (inactive); in the test with SK-MEL-2, 25.6 µM (inactive). The GI50 in the test on SK-MEL-5 is 23.4 µM (inactive); in the test with SK-OV-3, > 100 µM (inactive); in the test on SNB-75, 66.7 µM (inactive); in the test with U-251, 19.5 µM (inactive).

Turning to `CC(C)C1COC(c2cccc(C3=N[C@@H](C(C)C)CO3)n2)=N1` (some centres undefined), the GI50 in the test with CAKI-1, in the test on HCC 2998, with HCT-116, in the test with HL-60, in the test on M14 and with M19-MEL was > 100 µM (inactive) in each case. Moreover, the GI50 in the test on Malme-3M, in the test on NCI-H226, in the test on NCI-H522, with SF-268, in the test with SK-MEL-28 and with SK-MEL-2 was > 100 µM (inactive) in each case. In addition, the GI50 in the test with SK-MEL-5 was > 100 µM (inactive); with SK-OV-3 it was > 100 µM (inactive); with SNB-75, > 100 µM (inactive); with U-251, 59.3 µM (inactive).

In the case of `Nc1ccc2c(c1)Oc1c(F)c(F)cc3c(=O)c(C(=O)O)cn-2c13`, the GI50 with CAKI-1 was 32.1 µM (inactive); with HCC 2998 it was > 100 µM (inactive); in the test on HCT-116, 24.2 µM (inactive); with HL-60, 38.9 µM (inactive); in the test on M14 it was 81.5 µM (inactive); with M19-MEL, 34.9 µM (inactive). Besides, the GI50 with Malme-3M was 45.9 µM (inactive); with NCI-H522 it was 29.9 µM (inactive); in the test on SF-268, > 10 µM (inactive); with SK-MEL-28, 40.3 µM (inactive); with SK-MEL-2, 80.2 µM (inactive); in the test with SK-MEL-5 it was 17.1 µM (inactive). For the same molecule, the GI50 in the test on SK-OV-3 was > 100 µM (inactive); in the test with U-251, 34.2 µM (inactive).

In the case of `CCc1ccccc1NC(=O)C(=O)CC(=O)c1sc(Nc2ccccc2)nc1C`, the GI50 is 85.9 µM (inactive) in the test with CAKI-1; > 100 µM (inactive) in the test with HCC 2998; > 100 µM (inactive) in the test with HCT-116; 89.1 µM (inactive) in the test with HL-60; > 100 µM (inactive) in the test on M14; > 100 µM (inactive) in the test with M19-MEL. The GI50 is > 100 µM (inactive) in the test on Malme-3M; > 100 µM (inactive) with NCI-H226; 73.5 µM (inactive) with NCI-H522; > 100 µM (inactive) in the test with SF-268; > 100 µM (inactive) in the test on SK-MEL-28; > 100 µM (inactive) in the test with SK-MEL-2. Moreover, the GI50 with SK-MEL-5 was > 100 µM (inactive); in the test on SK-OV-3, > 100 µM (inactive); with SNB-75, 67.9 µM (inactive); in the test with U-251 it was > 100 µM (inactive).

As for `CC(C)(C)c1cc(CCC(=O)Nc2ccc(Cl)cc2)nc(S)n1`, the GI50 in the test with CAKI-1, in the test on HCC 2998, in the test on HL-60, in the test with M14, with M19-MEL and with Malme-3M was > 100 µM (inactive) in each case. Further, the GI50 with NCI-H226, in the test on NCI-H522, with SF-268, with SK-MEL-28, with SK-MEL-2 and in the test with SK-MEL-5 was > 100 µM (inactive) in each case. The GI50 with SK-OV-3, in the test with SNB-75 and in the test on U-251 was > 100 µM (inactive) throughout.

In the case of `Cc1cc2c(cc1C)[n+]([O-])c(C(=O)/C=C/c1ccc(Cl)cc1)c(C)[n+]2[O-]`, the GI50 in the test with CAKI-1 was 32.3 µM (inactive); with HCC 2998 it was 23.5 µM (inactive); in the test with HL-60 it was 24 µM (inactive); in the test with M14 it was 23.3 µM (inactive); in the test with M19-MEL, 35.3 µM (inactive); in the test with Malme-3M, 38.5 µM (inactive). The GI50 in the test on NCI-H226 was > 100 µM (inactive); in the test with NCI-H522 it was 19.4 µM (inactive); in the test on SF-268, > 10 µM (inactive); with SK-MEL-28, 23.2 µM (inactive); in the test with SK-MEL-2 it was 29.5 µM (inactive); in the test with SK-MEL-5 it was 23.7 µM (inactive). Further, the figures for the GI50 in the test on SK-OV-3, in the test on SNB-75 and in the test with U-251 were 34.7 µM (inactive), 19.6 µM (inactive) and 26.8 µM (inactive), respectively.

As for `CCc1nc2ccc(NCCN(C)C)c3c(=O)c4ccccc4n1c23`, the GI50 in the test with CAKI-1 is 1.56 µM (inactive); with HCC 2998, 0.762 µM (active); in the test on HCT-116, 0.337 µM (active); in the test on HL-60, 1.75 µM (inactive); in the test with M14 it was 1.52 µM (inactive); with M19-MEL it was 2 µM (inactive). Besides, the GI50 in the test with Malme-3M was 1.61 µM (inactive); in the test with NCI-H226 it was 1.07 µM (active); in the test on NCI-H522 it was 0.946 µM (active); with NCI/ADR-RES, 431 nM (active); in the test with PC-3 it was 800 nM (active); in the test on SF-268, 0.711 µM (active). For the same molecule, the GI50 in the test with SK-MEL-28 was 2.44 µM (inactive); with SK-MEL-2 it was 3.07 µM (inactive); with SK-OV-3, 1.69 µM (inactive); in the test with SNB-75, 3 µM (inactive); in the test on T47D, 2.59 µM (inactive); in the test with U-251, 0.796 µM (active).
